Experimental data published in patent publication US20200140821A1, “EX VIVO MEAT PRODUCTION” (WILD TYPE, INC., priority 2017, published 2020).
“Also recorded” adds a separate entry of the source.

Test system: duck hepatocytes
Experiment: Induction of steatosis in cultured duck hepatocytes by incubation with fatty acid
Assay type: cell-based

## CCCCC/C=C\C/C=C\CCCCCCCC(=O)O [linoleic acid]
0, 0.1, 0.25, 0.5, 1, 2 μm, FIG. 16B
  dose response: percentage of hepatocytes with steatosis versus concentration: corresponding increase in the percentage of hepatocytes with steatosis
2 μM linoleic acid, FIG. 16B
  percentage of steatotic hepatocytes: above 85%
2 μM, compared to untreated control, FIG. 16A
  induction of steatosis (accumulation of intracellular lipid-containing vesicles): successful induction of steatosis; also recorded: successfully induced to undergo steatosis
